# Patent publication US20160362408A1 (Bayer Pharma Aktiengesellschaft, priority 2013, published 2016)
# Target: T1, recombinant guanylate cyclase reporter cell line (Rattus norvegicus, UniProt P19686+P20595)
# T1 construct: expressed in transfected cells
# T1 sequence (P19686 1-690): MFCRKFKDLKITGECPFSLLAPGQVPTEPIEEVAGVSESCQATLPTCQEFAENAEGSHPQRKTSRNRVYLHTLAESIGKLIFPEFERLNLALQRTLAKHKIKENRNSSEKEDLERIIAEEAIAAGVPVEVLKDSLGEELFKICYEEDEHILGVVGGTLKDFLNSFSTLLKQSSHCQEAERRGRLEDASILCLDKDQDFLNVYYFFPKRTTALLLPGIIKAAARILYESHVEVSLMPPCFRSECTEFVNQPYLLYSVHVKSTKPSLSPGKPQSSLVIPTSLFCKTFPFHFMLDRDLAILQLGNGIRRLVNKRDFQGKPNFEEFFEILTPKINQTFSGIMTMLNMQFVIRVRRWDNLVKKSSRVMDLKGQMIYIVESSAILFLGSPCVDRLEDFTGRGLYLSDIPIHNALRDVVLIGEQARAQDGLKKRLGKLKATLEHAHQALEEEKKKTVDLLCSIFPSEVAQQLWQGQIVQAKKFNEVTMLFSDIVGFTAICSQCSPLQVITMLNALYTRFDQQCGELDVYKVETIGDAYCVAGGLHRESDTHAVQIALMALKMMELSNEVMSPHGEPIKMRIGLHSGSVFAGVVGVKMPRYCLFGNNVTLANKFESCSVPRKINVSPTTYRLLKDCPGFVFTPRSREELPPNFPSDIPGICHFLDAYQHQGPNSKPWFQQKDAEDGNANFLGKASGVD
# T1 sequence (P20595 1-619): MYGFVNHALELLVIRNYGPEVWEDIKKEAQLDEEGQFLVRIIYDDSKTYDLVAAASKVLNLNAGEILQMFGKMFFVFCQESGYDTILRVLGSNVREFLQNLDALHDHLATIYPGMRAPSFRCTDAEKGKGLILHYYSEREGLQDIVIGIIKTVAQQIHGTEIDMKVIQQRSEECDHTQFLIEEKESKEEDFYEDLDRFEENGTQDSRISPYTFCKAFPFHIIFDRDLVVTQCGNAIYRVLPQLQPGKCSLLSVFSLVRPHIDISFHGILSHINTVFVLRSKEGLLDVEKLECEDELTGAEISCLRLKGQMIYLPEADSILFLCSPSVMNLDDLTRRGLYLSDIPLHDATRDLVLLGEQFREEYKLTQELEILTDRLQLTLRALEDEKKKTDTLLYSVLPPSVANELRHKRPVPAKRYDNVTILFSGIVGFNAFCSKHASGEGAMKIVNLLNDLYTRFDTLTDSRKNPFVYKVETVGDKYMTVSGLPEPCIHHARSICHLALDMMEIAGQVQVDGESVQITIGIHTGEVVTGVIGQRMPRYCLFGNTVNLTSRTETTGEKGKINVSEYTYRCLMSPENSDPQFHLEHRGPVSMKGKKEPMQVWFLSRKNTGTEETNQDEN
# Assay: Effect on a recombinant guanylate cyclase reporter cell line
# Type: cell-based
# Settings: MEC = minimum effective concentration; in some cases mean values for individual determinations
# Method: B-2. Effect on a Recombinant Guanylate Cyclase Reporter Cell Line
# The cellular action of the compounds of the invention is determined using a recombinant guanylate cyclase reporter cell line, as described in F. Wunder et al., Anal. Biochem. 339, 104-112 (2005).
# Representative MEC values (MEC=minimum effective concentration) for the compounds of the invention are shown in the table below (in some cases as mean values for individual determinations): […]
row,Compound,MEC [µM]
1,"8-[(2,6-difluorobenzyl)oxy]-N-[1-(2- hydroxyethyl)-5-methyl-3-(trifluoromethyl)-1H- pyrazol-4-yl]-2,6-dimethylimidazo[1,2-a]pyridine- 3-carboxamide [Example 118]",0.1
2,"Cc1nc2c(OCc3c(F)cccc3F)cccn2c1C(=O)Nc1cnn(CCN2CCC(O)C2)c1 (racemic) [Example 131, rac-8-[(2,6-difluorobenzyl)oxy]-N-{1-[2-(3-hydroxypyrrolidin-1-yl)ethyl]-1H-pyrazol-4-yl}-2-methylimidazol[1,2-a] pyridine-3-carboxamide]",10
3,"Cc1nc2c(OCc3c(F)cccc3F)cccn2c1C(=O)Nc1cnn2ccccc12 [Example 1, 8-[(2,6-Difluorobenzyl)oxy]-2-methyl-N-(pyrazolo[1,5-a]pyridin-3-yl)imidazo[1,2-a]pyridine-3-carboxamide]",0.1
4,Cc1nc2c(OCc3c(F)cccc3F)cccn2c1C(=O)Nc1c[nH]c2ccccc12 [Example 2],0.1
5,Cc1n[nH]cc1NC(=O)c1c(C)nc2c(OCc3c(F)cccc3F)cccn12 [Example 3],0.3
6,Cc1nn(C)cc1NC(=O)c1c(C)nc2c(OCc3c(F)cccc3F)cccn12 [Example 4],0.3
7,Cc1cccc(NC(=O)c2c(C)nc3c(OCc4c(F)cccc4F)cccn23)n1 [Example 5],0.3
8,Cc1nc2c(OCc3c(F)cccc3F)cccn2c1C(=O)Nc1ccc2c(c1)OCC(=O)N2 [Example 6],0.1
9,CCc1cc(NC(=O)c2c(C)nc3c(OCc4c(F)cccc4F)cccn23)ccn1 [Example 8],0.1
10,Cc1ccc(F)c(NC(=O)c2c(C)nc3c(OCc4c(F)cccc4F)cccn23)c1 [Example 9],0.3
11,Cc1nc2c(OCc3c(F)cccc3F)cccn2c1C(=O)Nc1ccccc1F [Example 10],0.3
12,Cc1nc2c(OCc3c(F)cccc3F)cccn2c1C(=O)Nc1ccccc1 [Example 11],0.3
13,Cc1cccc(NC(=O)c2c(C)nc3c(OCc4c(F)cccc4F)cccn23)c1C [Example 12],0.3
14,COc1cccc(NC(=O)c2c(C)nc3c(OCc4c(F)cccc4F)cccn23)c1 [Example 13],0.3
15,Cc1nc2c(OCc3c(F)cccc3F)cccn2c1C(=O)Nc1cccc(Cl)c1C [Example 14],0.3
16,COc1cccc(C)c1NC(=O)c1c(C)nc2c(OCc3c(F)cccc3F)cccn12 [Example 15],0.3
17,COc1ccc(C)c(NC(=O)c2c(C)nc3c(OCc4c(F)cccc4F)cccn23)c1 [Example 16],0.3
18,Cc1nc2c(OCc3c(F)cccc3F)cccn2c1C(=O)Nc1cccc(C(C)O)c1 (centres unmarked) [Example 17],0.3

row,Compound,MEC [µM]
1,CC(=O)Nc1ccc(NC(=O)c2c(C)nc3c(OCc4c(F)cccc4F)cccn23)cc1C(F)(F)F [Example 18],0.3
2,Cc1nc2c(OCc3c(F)cccc3F)cccn2c1C(=O)Nc1cc[nH]n1 [Example 19],3.0
3,CCn1nccc1NC(=O)c1c(C)nc2c(OCc3c(F)cccc3F)cccn12 [Example 20],1.0
4,Cc1nc2c(OCc3c(F)cccc3F)cccn2c1C(=O)Nc1ccnn1C(C)C [Example 21],1.0
5,"Cc1nc2c(OCc3c(F)cccc3F)cccn2c1C(=O)Nc1cnn(CCO)c1 [Example 22, 8-[(2,6-Difluorobenzyl)oxy]-N-[1-(2-hydroxyethyl)-1H-pyrazol-4-yl]-2-methylimidazo[1,2-a]pyridine-3-carboxamide]",1.43
6,"Cc1noc(C)c1NC(=O)c1c(C)nc2c(OCc3c(F)cccc3F)cccn12 [Example 23, 8-[(2,6-difluorobenzyl)oxy]-N-(3,5-dimethyl-1,2-oxazol-4-yl)-2-methylimidazo[1,2-a]pyridine-3-carboxamide]",0.65
7,"Cc1nc2c(OCc3c(F)cccc3F)cccn2c1C(=O)Nc1cnn(CC(N)=O)c1 [Example 25, N-[1-(2-amino-2-oxoethyl)-1H-pyrazol-4-yl]-8-[(2,6-difluorobenzyl)oxy]-2-methylimidazo[1,2-a]pyridine-3-carboxamide]",3.0
8,"COCCn1cc(NC(=O)c2c(C)nc3c(OCc4c(F)cccc4F)cccn23)cn1 [Example 26, 8-[(2,6-difluorobenzyl)oxy]-N-[1-(2-methoxyethyl)-1H-pyrazol-4-yl]-2-methylimidazo[1,2-a]pyridine-3-carboxamide]",1.0
9,"Cc1nc2c(OCc3c(F)cccc3F)cccn2c1C(=O)Nc1cnn(C(C)C)c1 [Example 27, 8-[(2,6-difluorobenzyl)oxy]-N-(1-isopropyl-1H-pyrazol-4-yl)-2-methylimidazo[1,2-a]pyridine-3-carboxamide]",0.3
10,"Cc1n[nH]c(C)c1NC(=O)c1c(C)nc2c(OCc3c(F)cccc3F)cccn12 [Example 29, 8-[(2,6-difluorobenzyl)oxy]-N-(3,5-dimethyl-1H-pyrazol-4-yl)-2-methylimidazo[1,2-a]pyridine-3-carboxamide]",0.53
11,"Cc1nc2c(OCc3c(F)cccc3F)cccn2c1C(=O)Nc1cnn(CC(F)(F)F)c1 [Example 30, 8-[(2,6-difluorobenzyl)oxy]-2-methyl-N-[1-(2,2,2-trifluoroethyl)-1H-pyrazol-4-yl]imidazo[1,2-a]pyridine-3-carboxamide]",0.3
12,"Cc1nc2c(OCc3c(F)cccc3F)cccn2c1C(=O)Nc1cn[nH]c1 [Example 31, 8-[(2,6-difluorobenzyl)oxy]-2-methyl-N-(1H-pyrazol-4-yl)imidazo[1,2-a]pyridine-3-carboxamide]",1.0
13,"Cc1nn(CC(F)(F)F)c(C)c1NC(=O)c1c(C)nc2c(OCc3c(F)cccc3F)cccn12 [Example 32, 8-[(2,6-difluorobenzyl)oxy]-N-[3,5-dimethyl-1-(2,2,2-trifluoroethyl)-1H-pyrazol-4-yl]-2-methylimidazo[1,2-a]pyridine-3-carboxamide]",1.0
14,"Cc1nn(CC(F)(F)F)cc1NC(=O)c1c(C)nc2c(OCc3c(F)cccc3F)cccn12 [Example 33, 8-[(2,6-difluorobenzyl)oxy]-2-methyl-N-[3-methyl-1-(2,2,2-trifluoroethyl)-1H-pyrazol-4-yl]imidazo[1,2-a]pyridine-3-carboxamide]",1.0
15,"Cc1nn(C)c(N2CCOCC2)c1NC(=O)c1c(C)nc2c(OCc3c(F)cccc3F)cccn12 [Example 34, 8-[(2,6-difluorobenzyl)oxy]-N-[1,3-dimethyl-5-(morpholin-4-yl)-1H-pyrazol-4-yl]-2-methylimidazo[1,2-a]pyridine-3-carboxamide]",1.0
16,"Cc1nc2c(OCc3c(F)cccc3F)cccn2c1C(=O)Nc1cnn(Cc2cccc(F)c2)c1 [Example 35, 8-[(2,6-difluorobenzyl)oxy]-N-[1-(3-fluorobenzyl)-1H-pyrazol-4-yl]-2-methylimidazo[1,2-a]pyridine-3-carboxamide]",3.0
17,"CNC(=O)c1c(NC(=O)c2c(C)nc3c(OCc4c(F)cccc4F)cccn23)cnn1C [Example 36, 8-[(2,6-difluorobenzyl)oxy]-2-methyl-N-[1-methyl-5-(methylcarbamoyl)-1H-pyrazol-4-yl]imidazo[1,2-a]pyridine-3-carboxamide]",1.0
